Source: patent US4996214A, “Quinolinyl substituted phenyl/thioalkanoic acid substituted propionic acids and leucotriene antagonist use thereof” (SmithKline Beecham Corporation, priority 1990, dated 1991)

Molecular target: T1, LTD4 (Cavia porcellus, UniProt Q2NNR5)
T1 construct: tracheal spiral strips of approximate dimensions 2 to 3 mm cross-sectional width; from tissue; host or cells: guinea pig (adult male albino Hartley) tracheal spiral strips
T1 sequence (Q2NNR5 1-340): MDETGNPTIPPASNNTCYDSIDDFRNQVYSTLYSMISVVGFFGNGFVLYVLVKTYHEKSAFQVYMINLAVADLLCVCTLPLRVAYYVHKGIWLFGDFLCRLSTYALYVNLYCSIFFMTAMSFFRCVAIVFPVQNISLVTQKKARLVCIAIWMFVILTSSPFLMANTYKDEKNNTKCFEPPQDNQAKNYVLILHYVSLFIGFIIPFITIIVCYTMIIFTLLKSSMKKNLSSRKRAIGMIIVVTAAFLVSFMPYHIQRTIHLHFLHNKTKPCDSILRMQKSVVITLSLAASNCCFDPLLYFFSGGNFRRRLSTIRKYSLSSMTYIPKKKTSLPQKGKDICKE
Test: inhibition of leukotriene (LTD4) induced contraction of guinea pig tracheal tissues in vitro
Type: cell-based
Experimental: The leukotriene antagonist activity of the compounds of this invention was measured by the ability of the compounds to inhibit the leukotriene induced contraction of guinea pig tracheal tissues in vitro. The following methodology was employed: In vitro: Guinea pig (adult male albino Hartley strain) tracheal spiral strips of approximate dimensions 2 to 3 mm cross-sectional width and 3.5 cm length were bathed in modified Krebs buffer in jacketed 10 ml tissue bath and continuously aerated with 95% O2 /5% CO2. The tissues were connected via silk suture to force displacement transducers for recording isometric tension. The tissues were equilibrated for 1 hour, pretreated for 15 minutes with meclofenamic acid ([…]) to remove intrinsic prostaglandin responses, and then pretreated for an additional 30 minutes with either the test compound or vehicle control. […]
Calculations: The averages of the triplicate LTD4 concentration-response curves both in the presence and absence of the test compound were plotted on log graph paper. The concentration of LTD4 needed to elicit 30% of the contraction elicited by carbachol was measured and defined as the EC30. The -log KB value for the test compound was determined by the following equations: [formula] […]
The antagonist activity of representative compounds of this invention is tabulated below. The -log KB values were calculated from the above test protocols. […]

Kb (LTD4 concentration-response on guinea pig tracheal spiral strips, EC30 shift, 30 min pretreatment with test compound, read-out: pKB (-log KB) (converted)): 31.6 nM
Ki (stated as 'in this assay', separate method not given): 7.7 nM
Structure (SMILES): O=C(O)CCSC(CC(=O)O)c1ccccc1CCCCCCCc1ccc2ccc(Cl)cc2n1 (centres unmarked) [3-{2-[7-(2-(7-Chloro)quinolinyl)heptyl]phenyl}-3,3'-thiodipropionic acid]
